Measured values taken from article PMC6152084, “Synthesis of New Hydrazone Derivatives for MAO Enzymes Inhibitory Activity” (Molecules : A Journal of Synthetic Chemistry and Natural …, 2017).
Marks after values point to notes of the source that are not given here.

What was measured:
hMAO-A [1] = target: T1, hMAO-A (Homo sapiens, UniProt P21397); assay: MAO-A inhibition assay (in vitro fluorometric Amplex Red method); assay type: biochemical; conditions: for inhibition at 1000 µM: 10^−3 M; for inhibition at 100 µM: 10^−4 M; for inhibition at 10 µM: 10^−5 M; for inhibition at 1 µM: 10^−6 M; for inhibition at 0.1 µM: 10^−7 M; for inhibition at 0.01 µM: 10^−8 M; for inhibition at 0.001 µM: 10^−9 M; for inhibition against hMAO-A in the initial assay: first step, 10^−3 and 10^−4 M; for selectivity towards hMAO-A: versus hMAO-B
T1 construct: purchased Sigma-Aldrich (Steinheim, Germany)
T1 sequence (P21397 1-527): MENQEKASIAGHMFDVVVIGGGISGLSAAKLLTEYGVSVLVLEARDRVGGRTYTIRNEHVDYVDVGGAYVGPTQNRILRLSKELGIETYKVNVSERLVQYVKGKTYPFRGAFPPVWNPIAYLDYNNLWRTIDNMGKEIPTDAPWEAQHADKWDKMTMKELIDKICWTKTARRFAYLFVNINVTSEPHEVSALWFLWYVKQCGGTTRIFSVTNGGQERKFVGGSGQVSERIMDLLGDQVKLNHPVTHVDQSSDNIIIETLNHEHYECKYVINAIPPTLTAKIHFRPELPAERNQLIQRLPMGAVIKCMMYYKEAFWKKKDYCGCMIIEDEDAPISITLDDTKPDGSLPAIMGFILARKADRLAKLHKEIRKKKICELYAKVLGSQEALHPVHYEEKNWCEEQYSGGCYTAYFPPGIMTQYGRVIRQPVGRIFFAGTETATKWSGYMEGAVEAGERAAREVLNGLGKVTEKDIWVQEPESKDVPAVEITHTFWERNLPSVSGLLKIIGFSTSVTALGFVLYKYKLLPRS

[2] = system: Salmonella typhimurium TA100; assay: Ames MPF genotoxicity test, TA100; assay type: cell-based; conditions: for mutagenicity classification against TA100: with/without metabolic activation (S9)
Procedure: An Ames MPF assay was performed to investigate the genotoxicity of the compounds 2a and 2b.
The genotoxicity of the compounds was determined by Ames assay as previously described using the Ames MPF 98/100 mutagenicity test sample kit (Xenometrix AG, Allschwil, Switzerland). This test was performed with Salmonella typhimurium strains TA98 (frameshift mutations) and TA100 (base-pair substitutions). Compounds was prepared in six different concentrations (5, 2.5, 1.25, 0.625, 0.3125, 0.156 mg/mL) which was between […] and 5000 µg/mL according to the previous guidelines in DMSO. In order to detect mutagenic potential, test performed with and without Aroclor™-1254 induced male Sprague-Dawley rat liver microsomal enzyme (S9) mix (Xenometrix AG). While the positive control for TA 98 without S9 mix was 2-nitrofluorene (2 μg/mL), 1 μg/mL of 2-aminoanthracene was positive control with S9 against TA 98. For TA100, 4-nitroquinoline N-oxide (0.1 μg/mL) was positive control without S9 mix and 2.5 μg/mL of 2-aminoanthracene was positive control. 4% DMSO solution was the solvent control. At the end of the experiment, revertant bacteria decreased the pH of solution and indicator medium colour was changed to yellow. Yellow wells were counted as positive and compared with the negative control. Fold induction over the negative control and fold induction over the baseline were calculated. Fold induction over the negative control is the ratio of the mean number of positive wells for the dose concentration divided by the mean number of positive wells for the zero dose (negative) control. Fold induction over the baseline is the ratio of the mean number of positive wells for the dose concentration divided by zero dose baseline. The zero dose baseline is obtained by adding one standard deviation to the mean number of positive wells of the zero dose control. Mutagenity was determined according to the criteria from previous studies. For a baseline value ≤ 3, significant increases between 2 and 3-fold the baseline were classified as weak mutagen, increases ≥ 3-fold the baseline were classified as mutagen. For a baseline was > 3, significant increases between 1.5 and 2.5-fold the baseline were classified as weak mutagen, and increases ≥ 2.5-fold the baseline, were classified as mutagen. In principle, for a mutagenic compound, at least two adjacent doses with significant increase or a significant increase at the highest dose level should be observed. All doses were compared according to Student’s t-test at p < 0.05 as statistically.

hMAO-A [3] = target: T1, hMAO-A; assay: Enzyme kinetics (Lineweaver-Burk plots, tyramine substrate); assay type: biochemical; conditions: for type of inhibition of hMAO-A: Lineweaver-Burk plot
Procedure: The mechanism of hMAO-A inhibition was investigated by enzyme kinetics, following a similar procedure to the MAO inhibition assay. The linear Lineweaver-Burk graphics were used to estimate the type of inhibition. […] In each case, the initial velocity measurements were gained at different substrate (tyramine) concentrations ranging from 20 μM to 0.625 μM. The Ki (intercept on the x-axis) values of compounds 2a and 2b were determined from the secondary plot of the Km/Vmax (slope) versus varying concentrations.
Based on the type of interaction with the enzyme, inhibitor binding can be classified as either reversible or irreversible. The type of inhibition can be determined by the Lineweaver-Burk plot as mixed-type, uncompetitive, competitive, or noncompetitive, which are the indicators of a reversible inhibitor [23]. It is known that in the uncompetitive type inhibition a graphic, including the parallel lines without any cross, is observed. If the lines cross neither the x- nor the y-axis at the same point the inhibition type is called mixed-type. Noncompetitive inhibition is seen if the plots intersect on the x-axis. There are different slopes and intercepts on the y-axis. On the other hand, competitive inhibition gives the opposite situation. This type of inhibition has plots with the same intercept on the y-axis but there are diverse slopes and intercepts on the x-axis, which are observed in Figure 2 and Figure 3.
The same materials were used as in the MAO inhibition assay. […] The solutions of inhibitor (20 μL/well) and enzyme were added to the flat black bottom 96-well micro test plate, and incubated at 37 °C for 30 min. After incubation period, the working solution, including various concentrations (20, 10, 5, 2.5, 1.25, and 0.625 μM) of tyramine (100 μL/well) was added. The increase of the fluorescence (Ex/Em = 535/587 nm) was recorded for 30 min. A parallel experiment was carried out without inhibitor. All processes were assayed in quadruplicate. The results were analyzed as Lineweaver-Burk plots using Microsoft Office Excel 2013. The Km/Vmax (slope) values of the Lineweaver-Burk plots were replotted versus the inhibitor concentration, and the Ki values were determined from the x-axis intercept as −Ki.

Structure (SMILES) | IC50 (hMAO-A [1]) | inhibition at 1000 µM (hMAO-A [1]) | inhibition at 100 µM (hMAO-A [1]) | inhibition at 10 µM (hMAO-A [1]) | inhibition at 1 µM (hMAO-A [1]) | inhibition at 0.1 µM (hMAO-A [1]) | inhibition at 0.01 µM (hMAO-A [1]) | inhibition at 0.001 µM (hMAO-A [1]) | inhibition against hMAO-A in the initial assay (hMAO-A [1]) | selectivity towards hMAO-A (hMAO-A [1]) | Revertants Fold Increase (Over Baseline) ([2]; TA 100, S9+, 0.156 mg/mL) | Revertants Fold Increase (Over Baseline) ([2]; TA 100, S9+, 0.3125 mg/mL) | Revertants Fold Increase (Over Baseline) ([2]; TA 100, S9+, 0.625 mg/mL) | Revertants Fold Increase (Over Baseline) ([2]; TA 100, S9+, 1.25 mg/mL) | Revertants Fold Increase (Over Baseline) ([2]; TA 100, S9+, 2.5 mg/mL) | Revertants Fold Increase (Over Baseline) ([2]; TA 100, S9+, 5 mg/mL) | Revertants Fold Increase (Over Baseline) ([2]; TA 100, S9−, 0.156 mg/mL) | Revertants Fold Increase (Over Baseline) ([2]; TA 100, S9−, 0.3125 mg/mL) | Revertants Fold Increase (Over Baseline) ([2]; TA 100, S9−, 0.625 mg/mL) | Revertants Fold Increase (Over Baseline) ([2]; TA 100, S9−, 1.25 mg/mL) | further results
CC1CCCCN1c1ccc(/C=N/Nc2ccccc2)cc1 (stereo not drawn) [Compound 2a, 1-(4-(2-Methypiperidin-1-yl)benzylidene)-2-phenylhydrazine] | 342 ± 15 nM | 88.2 ± 0.821% | 84.29 ± 0.641% | 75.1 ± 0.693% | 50.8 ± 0.582% | 34.7 ± 0.378% | 30.5 ± 0.542% | 25.5 ± 0.517% | more than 50% | selective inhibition potency towards hMAO-A | 0.99 | 0.69 | 0.91 | 0.95 | 0.39 | 0.82 | 0.44 | 0.63 | 0.24 * | 0.19 * | Revertants Fold Increase (Over Baseline) ([2]; TA 100, S9−, 2.5 mg/mL): 0.05 *; Revertants Fold Increase (Over Baseline) ([2]; TA 100, S9−, 5 mg/mL): 0.00 *; Fold-inductions over baseline ([2]; TA100, absence and presence of S9, each concentration): less than 1.5; mutagenicity classification against TA100 [2]: not genotoxic; Vmax value of the competitive inhibition (hMAO-A [3]): 85.517 ± 2.332 nmol/min/mg protein; type of inhibition of hMAO-A (hMAO-A [3]): reversible and competitive; Ki (hMAO-A [3]; secondary plot of Km/Vmax (slope) versus inhibitor concentration, read-out: Ki for the inhibition of hMAO-A): 188 nM
CN1CCN(c2ccc(C=NNc3ccccc3)cc2)CC1 [Compound 2b, 1-(4-(4-Methylpiperazine-1-yl)benzylidene)-2-phenylhydrazine] | 28 ± 1 nM | 93.53 ± 0.412% | 88.86 ± 0.214% | 80.42 ± 0.47% | 66.22 ± 0.54% | 48.2 ± 0.631% | 45.3 ± 0.48% | 38.15 ± 0.367% | more than 50% | selective inhibition potency towards hMAO-A | 1.46 * | 1.40 | 1.46 | 0.79 | 0.12 * | 0.00 * | 0.40 | 0.17 * | 0.06 * | 0.03 * | fold more active than moclobemide against hMAO-A (hMAO-A [1]; ratio of IC50 values): 216 fold; Revertants Fold Increase (Over Baseline) ([2]; TA 100, S9−, 2.5 mg/mL): 0.00 *; Revertants Fold Increase (Over Baseline) ([2]; TA 100, S9−, 5 mg/mL): 0.00 *; Fold-inductions over baseline ([2]; TA100 with S9, each concentration): ≤ 1.5; mutagenicity classification against TA100 [2]: non-mutagenic; Vmax value of the competitive inhibition (hMAO-A [3]): 79.360 ± 5.704 nmol/min/mg protein; type of inhibition of hMAO-A (hMAO-A [3]): reversible and competitive
